According to patent US20120016010A1, “RNA Interference Mediated Inhibition of BTB and CNC Homology 1, Basic Leucine Zipper Transcription Factor 1 (BACH1) Gene Expression Using Short Interfering Nucleic Acid (siNA)” (Merck Sharp & Dohme Corp, priority 2009, published 2012):

System: Male CD rats
Settings: rat, in vivo, 10 mg/kg
Procedure: Male CD rats were anaesthetised and intra-tracheally dosed with 200 ul of either vehicle, Poly I:C (1 mg/kg) or siNA (10 mg/kg). 24 hours later the rats were euthanized and the lungs lavaged 3 times with 5 ml of heparinised PBS. Total and differential cell counts as well as cytokine analysis were performed on the lung lavage fluid.

**Q.** “29947-DC (sense GGAAUCCUGCUUUCAGUUUTT; antisense AAACUGAAAGCAGGAUUCCUU; inverted abasic caps (B), 2'-modified nucleotides, further chemistry not given here)” was tested. Which cytokine production did it give?
**A.** no significant increases

**Q.** And the “inflammatory cell (neutrophils and macrophages) influx” value (shortened to “inflammatory cell”)?
**A.** no significant increases

**Q.** How did the cytokine production turn out when “29961-DC (sense CUACACUGCUAAACUGAUUTT; antisense AAUCAGUUUAGCAGUGUAGUU; inverted abasic end caps, TT overhangs, modified nucleotides, further chemistry not given here)” was run?
**A.** no significant increases

**Q.** And the “inflammatory cell” value?
**A.** no significant increases

**Q.** With “29964-DC (sense GAUUUGCAGGUGAUGUUAATT; antisense UUAACAUCACCUGCAAAUCUU; inverted abasic end caps, TT overhangs, modified nucleotides, further chemistry not given here)” as the substance, how does the cytokine production read?
**A.** no significant increases

**Q.** What about the “inflammatory cell” value of the same substance?
**A.** no significant increases

**Q.** Which cytokine production does the source give for “29988-DC (sense AUUUGAACCUUUAAUUCAGTT; antisense CUGAAUUAAAGGUUCAAAUUU; inverted abasic end caps, TT overhangs, modified nucleotides, further chemistry not given here)” here?
**A.** no significant increases

**Q.** What about the “inflammatory cell” value of the same substance?
**A.** no significant increases
